Reference: patent publication US11279687B2, “Compounds and compositions for the inhibition of NAMPT” (Valo Health, Inc., priority 2010, dated 2022)
Where two headings read alike, the source gives them in different places.

Experiments:
A2780 cells = assay: In-vitro cell proliferation assay (SRB), A2780 cells; format: cell-based; conditions: A2780 cells, 72 hours, SRB, read-out: A2780 IC50;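 note: viable cell number read as SRB absorbance, background from media-only wells subtracted, IC50 interpolated from percent inhibition at two bracketing compound concentrations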
NAMPT = NAMPT (Homo sapiens (Human), UniProt P43490); assay: NAMPT biochemical inhibition assay (NMN quantified by mass spectrometry)
Chain of NAMPT (P43490 whole entry): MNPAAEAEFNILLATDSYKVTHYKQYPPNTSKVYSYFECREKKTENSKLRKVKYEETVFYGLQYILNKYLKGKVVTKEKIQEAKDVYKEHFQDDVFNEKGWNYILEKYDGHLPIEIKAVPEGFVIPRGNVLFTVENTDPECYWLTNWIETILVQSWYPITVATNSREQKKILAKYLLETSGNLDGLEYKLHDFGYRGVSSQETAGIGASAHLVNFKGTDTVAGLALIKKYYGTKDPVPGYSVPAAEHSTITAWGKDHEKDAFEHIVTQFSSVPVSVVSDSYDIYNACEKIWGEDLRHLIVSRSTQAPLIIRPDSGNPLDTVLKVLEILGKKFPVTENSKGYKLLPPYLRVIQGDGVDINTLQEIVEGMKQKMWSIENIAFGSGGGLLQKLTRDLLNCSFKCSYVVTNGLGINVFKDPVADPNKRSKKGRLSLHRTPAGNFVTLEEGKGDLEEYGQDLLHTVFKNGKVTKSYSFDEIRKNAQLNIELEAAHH

[1] = NAMPT biochemical inhibition, read-out: Biochem IC50

In the case of `O=C(NCc1cccnc1)Nc1ccc(S(=O)(=O)N2CCN(CC(=O)N3CCOCC3)CC2)cc1` [1-(4-{4-[2-(morpholin-4-yl)-2-oxoethyl]piperazine-1-sulfonyl}phenyl)-3-(pyridin-3-ylmethyl)urea], the IC50 (A2780 cells; Homo sapiens, A2780, 72 h) is reported as 135 nM and the IC50 (NAMPT; [1]) is reported as 4 nM.
`O=C(NCc1cccnc1)Nc1ccc(S(=O)(=O)N2CCN(CC(=O)N3CCCCC3)CC2)cc1` [1-(4-{4-[2-oxo-2-(piperidin-1-yl)ethyl]piperazine-1-sulfonyl}phenyl)-3-(pyridin-3-ylmethyl)urea] was tested, and the IC50 (A2780 cells; Homo sapiens, A2780, 72 h) was 21 nM and the IC50 (NAMPT; [1]) was 9 nM.
For `O=C(NCc1cccnc1)Nc1ccc(S(=O)(=O)N2CCN(CC(=O)N3CCCC3)CC2)cc1` [1-(4-{4-[2-oxo-2-(pyrrolidin-1-yl)ethyl]piperazine-1-sulfonyl}phenyl)-3-(pyridin-3-ylmethyl)urea], the IC50 (A2780 cells; Homo sapiens, A2780, 72 h) was 99 nM and the IC50 (NAMPT; [1]) was 4 nM.
Molecule `O=C(NCc1cccnc1)Nc1ccc(S(=O)(=O)N2CCN(CCCN3CCOCC3)CC2)cc1` [1-(4-{4-[3-(morpholin-4-yl)propyl]piperazine-1-sulfonyl}phenyl)-3-(pyridin-3-ylmethyl)urea] has an IC50 (A2780 cells; Homo sapiens, A2780, 72 h) of 24 nM and an IC50 (NAMPT; [1]) of 3 nM.
With `O=C(NCc1cccnc1)Nc1ccc(S(=O)(=O)N2CCC(CN3CCCC3=O)CC2)cc1` [1-(4-{4-[(2-oxopyrrolidin-1-yl)methyl]piperidine-1-sulfonyl}phenyl)-3-(pyridin-3-ylmethyl)urea] the IC50 (A2780 cells; Homo sapiens, A2780, 72 h) was 78 nM and the IC50 (NAMPT; [1]) was 2 nM.
Work on `O=C(NCc1cccnc1)Nc1ccc(S(=O)(=O)N2CCN(C(=O)c3ccco3)CC2)cc1` [1-(4-{4-[(furan-2-yl)carbonyl]piperazine-1-sulfonyl}phenyl)-3-(pyridin-3-ylmethyl)urea] yielded an IC50 (A2780 cells; Homo sapiens, A2780, 72 h) of 168 nM and an IC50 (NAMPT; [1]) of 4 nM.
`O=C(NCc1cccnc1)Nc1ccc(S(=O)(=O)N2C3CCCC2CC3)cc1` [1-(4-{8-azabicyclo[3.2.1]octane-8-sulfonyl}phenyl)-3-(pyridin-3-ylmethyl)urea] was tested, and the IC50 (A2780 cells; Homo sapiens, A2780, 72 h) was 64 nM and the IC50 (NAMPT) was 4 nM.
With `O=C(NCc1cccnc1)Nc1ccc(S(=O)(=O)N2CCC3(CCCC3)CC2)cc1` [1-(4-{8-azaspiro[4.5]decane-8-sulfonyl}phenyl)-3-(pyridin-3-ylmethyl)urea] the IC50 (A2780 cells; Homo sapiens, A2780, 72 h) was 343 nM and the IC50 (NAMPT; [1]) was 4 nM.
`O=C(NCc1cccnc1)Nc1ccc(S(=O)(=O)c2cccc3c2oc2ccccc23)cc1` [1-(4-{8-oxatricyclo[7.4.0.0^2,^7]trideca-1(9),2(7),3,5,10,12-hexaene-6-sulfonyl}phenyl)-3-(pyridin-3-ylmethyl)urea] was tested, and the IC50 (A2780 cells) was 3 nM and the IC50 (NAMPT; [1]) was 2 nM.
For `O=C(NCc1cccnc1)Nc1ccc(S(=O)(=O)Nc2ccccc2N2CCOCC2)cc1` [1-(4-{[2-(morpholin-4-yl)phenyl]sulfamoyl}phenyl)-3-(pyridin-3-ylmethyl)urea], the IC50 (A2780 cells; Homo sapiens, A2780, 72 h) was 11 nM and the IC50 (NAMPT; [1]) was 5 nM.
`O=C(NCc1cccnc1)Nc1ccc(S(=O)(=O)c2ccccc2CN2CCOCC2)cc1` [1-(4-{[2-(morpholin-4-ylmethyl)benzene]sulfonyl}phenyl)-3-(pyridin-3-ylmethyl)urea] gave an IC50 (A2780 cells; Homo sapiens, A2780, 72 h) of 7.9 nM and an IC50 (NAMPT; [1]) of 3.6 nM.
`O=C(NCc1cccnc1)Nc1ccc(S(=O)(=O)Nc2ccccc2N2CCCCC2)cc1` [1-(4-{[2-(piperidin-1-yl)phenyl]sulfamoyl}phenyl)-3-(pyridin-3-ylmethyl)urea] was tested, and the IC50 (A2780 cells; Homo sapiens, A2780, 72 h) was 18 nM and the IC50 (NAMPT; [1]) was 4 nM.
In the case of `O=C(NCc1cccnc1)Nc1ccc(S(=O)(=O)c2cccc(-n3cccn3)c2)cc1` [1-(4-{[3-(1H-pyrazol-1-yl)benzene]sulfonyl}phenyl)-3-(pyridin-3-ylmethyl)urea], the IC50 (A2780 cells; Homo sapiens, A2780, 72 h) is reported as 98 nM and the IC50 (NAMPT; [1]) is reported as 2.2 nM.
`O=C(NCc1cccnc1)Nc1ccc(S(=O)(=O)c2cccc(OCC3CC3)c2)cc1` [1-(4-{[3-(cyclopropylmethoxy)benzene]sulfonyl}phenyl)-3-(pyridin-3-ylmethyl)urea] gave an IC50 (A2780 cells; Homo sapiens, A2780, 72 h) of 100 to 1000 nM and an IC50 (NAMPT; [1]) of 8.6 nM.
For `O=C(NCc1cccnc1)Nc1ccc(S(=O)(=O)Nc2cccc(N3CCOCC3)c2)cc1` [1-(4-{[3-(morpholin-4-yl)phenyl]sulfamoyl}phenyl)-3-(pyridin-3-ylmethyl)urea], the IC50 (A2780 cells; Homo sapiens, A2780, 72 h) was 103 nM and the IC50 (NAMPT; [1]) was 6 nM.
For `O=C(NCc1cccnc1)Nc1ccc(S(=O)(=O)c2ccc(-n3cccn3)cc2)cc1` [1-(4-{[4-(1H-pyrazol-1-yl)benzene]sulfonyl}phenyl)-3-(pyridin-3-ylmethyl)urea], the IC50 (A2780 cells; Homo sapiens, A2780, 72 h) was 55 nM and the IC50 (NAMPT; [1]) was 5.5 nM.
`O=C(NCc1cccnc1)Nc1ccc(S(=O)(=O)c2ccc(N3CCOCC3)cc2)cc1` [1-(4-{[4-(morpholin-4-yl)benzene]sulfonyl}phenyl)-3-(pyridin-3-ylmethyl)urea] was tested, and the IC50 (A2780 cells; Homo sapiens, A2780, 72 h) was 14.7 nM and the IC50 (NAMPT; [1]) was 1.8 nM.
With `O=C(NCc1cccnc1)Nc1ccc(S(=O)(=O)Nc2ccc(N3CCOCC3)cc2)cc1` [1-(4-{[4-(morpholin-4-yl)phenyl]sulfamoyl}phenyl)-3-(pyridin-3-ylmethyl)urea] the IC50 (A2780 cells; Homo sapiens, A2780, 72 h) was 173 nM and the IC50 (NAMPT; [1]) was 5 nM.
In the case of `O=C(NCc1cccnc1)Nc1ccc(S(=O)(=O)Nc2ccc(N3CCCCC3)cc2)cc1` [1-(4-{[4-(piperidin-1-yl)phenyl]sulfamoyl}phenyl)-3-(pyridin-3-ylmethyl)urea], the IC50 (A2780 cells; Homo sapiens, A2780, 72 h) is reported as 54 nM and the IC50 (NAMPT; [1]) is reported as 4 nM.
Work on `O=C(NCc1cccnc1)Nc1ccc(S(=O)(=O)Nc2ccccc2OC(F)(F)F)cc1` [1-(pyridin-3-ylmethyl)-3-(4-{[2-(trifluoromethoxy)phenyl]sulfamoyl}phenyl)urea] yielded an IC50 (A2780 cells; Homo sapiens, A2780, 72 h) of 7 nM and an IC50 (NAMPT; [1]) of 1.2 nM.
In the case of `O=C(NCc1cccnc1)Nc1ccc(S(=O)(=O)c2ccccc2C(F)(F)F)cc1` [1-(pyridin-3-ylmethyl)-3-(4-{[2-(trifluoromethyl)benzene]sulfonyl}phenyl)urea], the IC50 (A2780 cells; Homo sapiens, A2780, 72 h) is reported as 569 nM and the IC50 (NAMPT; [1]) is reported as 3 nM.
In the case of `O=C(NCc1cccnc1)Nc1ccc(S(=O)(=O)c2cccc(OC(F)(F)F)c2)cc1` [1-(pyridin-3-ylmethyl)-3-(4-{[3-(trifluoromethoxy)benzene]sulfonyl}phenyl)urea], the IC50 (A2780 cells; Homo sapiens, A2780, 72 h) is reported as 83 nM and the IC50 (NAMPT; [1]) is reported as 1 nM.
Molecule `O=C(NCc1cccnc1)Nc1ccc(S(=O)(=O)c2ccc(OC(F)(F)F)cc2)cc1` [1-(pyridin-3-ylmethyl)-3-(4-{[4-(trifluoromethoxy)benzene]sulfonyl}phenyl)urea] has an IC50 (A2780 cells; Homo sapiens, A2780, 72 h) of 420 nM and an IC50 (NAMPT; [1]) of 5 nM.
`O=C(NCc1cccnc1)Nc1ccc(S(=O)(=O)c2ccc(C(F)(F)F)cc2)cc1` [1-(pyridin-3-ylmethyl)-3-(4-{[4-(trifluoromethyl)benzene]sulfonyl}phenyl)urea] was tested, and the IC50 (A2780 cells; Homo sapiens, A2780, 72 h) was 604 nM and the IC50 (NAMPT; [1]) was 9 nM.
`C[C@@H]1[C@H]2C[C@@H](C[C@H]1NS(=O)(=O)c1ccc(NC(=O)NCc3cccnc3)cc1)C2(C)C` [1-(pyridin-3-ylmethyl)-3-(4-{[(1R,2R,3R,5S)-2,6,6-trimethylbicyclo[3.1.1]heptan-3-yl]sulfamoyl}phenyl)urea] gave an IC50 (A2780 cells; Homo sapiens, A2780, 72 h) of 91 nM and an IC50 (NAMPT; [1]) of 80 nM.
Work on `O=C(NCc1cccnc1)Nc1ccc(S(=O)(=O)n2cccc2)cc1` [1-(pyridin-3-ylmethyl)-3-[4-(1H-pyrrole-1-sulfonyl)phenyl]urea] yielded an IC50 (A2780 cells; Homo sapiens, A2780, 72 h) of 1790 nM and an IC50 (NAMPT; [1]) of 19 nM.
For `CC1CCN(S(=O)(=O)c2ccc(NC(=O)NCc3cccnc3)cc2)CC(C)(C)C1` (stereo not drawn) [1-(pyridin-3-ylmethyl)-3-[4-(3,3,5-trimethylazepane-1-sulfonyl)phenyl]urea], the IC50 (A2780 cells; Homo sapiens, A2780, 72 h) was 9.2 nM and the IC50 (NAMPT; [1]) was 2 nM.
Molecule `O=C(NCc1cccnc1)Nc1ccc(S(=O)(=O)C(F)(F)F)cc1` [1-(pyridin-3-ylmethyl)-3-[4-(trifluoromethane)sulfonylphenyl]urea] has an IC50 (A2780 cells; Homo sapiens, A2780, 72 h) of 10000 nM and an IC50 (NAMPT; [1]) of 226 nM.
Work on `O=C(NCc1cccnc1)Nc1ccc(S(=O)(=O)N2CCCC(C(F)(F)F)C2)cc1` (stereo not drawn) [1-(pyridin-3-ylmethyl)-3-{4-[3-(trifluoromethyl)piperidine-1-sulfonyl]phenyl}urea] yielded an IC50 (A2780 cells; Homo sapiens, A2780, 72 h) of 26 nM and an IC50 (NAMPT; [1]) of 3 nM.
Molecule `O=C(NCc1cccnc1)Nc1ccc(S(=O)(=O)c2ccc(C(F)(F)F)nc2)cc1` [1-(pyridin-3-ylmethyl)-3-{4-[6-(trifluoromethyl)pyridine-3-sulfonyl]phenyl}urea] has an IC50 (A2780 cells; Homo sapiens, A2780, 72 h) of 1000 to 10000 nM and an IC50 (NAMPT; [1]) of 27.9 nM.
In the case of `Cc1cc(C)c(S(=O)(=O)c2ccc(NC(=O)NCc3cccnc3)cc2)c(C)c1` [1-(pyridin-3-ylmethyl)-3-{4-[(2,4,6-trimethylbenzene)sulfonyl]phenyl}urea], the IC50 (A2780 cells; Homo sapiens, A2780, 72 h) is reported as > 1000 nM and the IC50 (NAMPT; [1]) is reported as 11 nM.
With `NS(=O)(=O)c1cccc(S(=O)(=O)c2ccc(NC(=O)NCc3cccnc3)cc2)c1` [1-(pyridin-3-ylmethyl)-3-{4-[(3-sulfamoylbenzene)sulfonyl]phenyl}urea] the IC50 (A2780 cells; Homo sapiens, A2780, 72 h) was 100 to 1000 nM and the IC50 (NAMPT; [1]) was 3.8 nM.
Molecule `O=C(NCc1cccnc1)Nc1ccc(S(=O)(=O)N2CCC[C@H](C(F)(F)F)C2)cc1` [1-(pyridin-3-ylmethyl)-3-{4-[(3S)-3-(trifluoromethyl)piperidine-1-sulfonyl]phenyl}urea] has an IC50 (A2780 cells; Homo sapiens, A2780, 72 h) of 29 nM and an IC50 (NAMPT; [1]) of 3 nM.
`O=C(NCc1cccnc1)Nc1ccc(S(=O)(=O)c2cccc3[nH]ccc23)cc1` [1-[4-(1H-indole-4-sulfonyl)phenyl]-3-(pyridin-3-ylmethyl)urea] gave an IC50 (A2780 cells; Homo sapiens, A2780, 72 h) of 13.4 nM and an IC50 (NAMPT; [1]) of 1.6 nM.
Molecule `O=C(NCc1cccnc1)Nc1ccc(S(=O)(=O)c2cccc3cc[nH]c23)cc1` [1-[4-(1H-indole-7-sulfonyl)phenyl]-3-(pyridin-3-ylmethyl)urea] has an IC50 (A2780 cells; Homo sapiens, A2780, 72 h) of 3.4 nM and an IC50 (NAMPT; [1]) of 0.5 nM.
Work on `O=C(NCc1cccnc1)Nc1ccc(S(=O)(=O)c2ccc3c(c2)OCCO3)cc1` [1-[4-(2,3-dihydro-1,4-benzodioxine-6-sulfonyl)phenyl]-3-(pyridin-3-ylmethyl)urea] yielded an IC50 (A2780 cells; Homo sapiens, A2780, 72 h) of 100 to 1000 nM and an IC50 (NAMPT; [1]) of 1.1 nM.
`O=C(NCc1cccnc1)Nc1ccc(S(=O)(=O)c2cccc3c2OCC3)cc1` [1-[4-(2,3-dihydro-1-benzofuran-7-sulfonyl)phenyl]-3-(pyridin-3-ylmethyl)urea] showed an IC50 (A2780 cells; Homo sapiens, A2780, 72 h) of 10.5 nM and an IC50 (NAMPT; [1]) of 1.1 nM.
For `CC1CCCC(C)N1S(=O)(=O)c1ccc(NC(=O)NCc2cccnc2)cc1` (stereo not drawn) [1-[4-(2,6-dimethylpiperidine-1-sulfonyl)phenyl]-3-(pyridin-3-ylmethyl)urea], the IC50 (A2780 cells; Homo sapiens, A2780, 72 h) was 164 nM and the IC50 (NAMPT; [1]) was 11 nM.
In the case of `O=C(NCc1cccnc1)Nc1ccc(S(=O)(=O)c2cccc3c2OCO3)cc1` [1-[4-(2H-1,3-benzodioxole-4-sulfonyl)phenyl]-3-(pyridin-3-ylmethyl)urea], the IC50 (A2780 cells; Homo sapiens, A2780, 72 h) is reported as 100 to 1000 nM and the IC50 (NAMPT; [1]) is reported as 4.3 nM.
